Assay results from ChEMBL document CHEMBL1153501, “3,4-Disubstituted benzofuran P1' MMP-13 inhibitors: optimization of selectivity and reduction of protein binding” (Bioorg Med Chem Lett, 2009).

Experiments:
[1] = Selectivity ratio of IC50 for MMP2 to IC50 for MMP13
[2] = target: Matrix metalloproteinase-9 (Homo sapiens, UniProt P14780); assay: Inhibition of MMP9
[3] = target: Collagenase 3 (Bos taurus) (UniProt O77656); assay: Inhibition of IL1-stimulated MMP13-mediated bovine articular cartilage collagen degradation assessed as hydroxyproline content at 1 uM after 17 days
[4] = target: Collagenase 3 (Bos taurus) (UniProt O77656); assay: Inhibition of IL1-stimulated MMP13-mediated bovine articular cartilage collagen degradation assessed as hydroxyproline content at 0.1 uM after 17 days
[5] = target: Collagenase 3 (Bos taurus) (UniProt O77656); assay: Inhibition of IL1-stimulated MMP13-mediated bovine articular cartilage collagen degradation assessed as hydroxyproline content at 0.01 uM after 17 days
Collagenase 3 = Collagenase 3 (Homo sapiens, UniProt P45452); assay: Inhibition of MMP13
[6] = target: 72 kDa type IV collagenase (Homo sapiens, UniProt P08253); assay: Inhibition of MMP2
72 kDa type IV collagenase, sequence (P08253 whole entry): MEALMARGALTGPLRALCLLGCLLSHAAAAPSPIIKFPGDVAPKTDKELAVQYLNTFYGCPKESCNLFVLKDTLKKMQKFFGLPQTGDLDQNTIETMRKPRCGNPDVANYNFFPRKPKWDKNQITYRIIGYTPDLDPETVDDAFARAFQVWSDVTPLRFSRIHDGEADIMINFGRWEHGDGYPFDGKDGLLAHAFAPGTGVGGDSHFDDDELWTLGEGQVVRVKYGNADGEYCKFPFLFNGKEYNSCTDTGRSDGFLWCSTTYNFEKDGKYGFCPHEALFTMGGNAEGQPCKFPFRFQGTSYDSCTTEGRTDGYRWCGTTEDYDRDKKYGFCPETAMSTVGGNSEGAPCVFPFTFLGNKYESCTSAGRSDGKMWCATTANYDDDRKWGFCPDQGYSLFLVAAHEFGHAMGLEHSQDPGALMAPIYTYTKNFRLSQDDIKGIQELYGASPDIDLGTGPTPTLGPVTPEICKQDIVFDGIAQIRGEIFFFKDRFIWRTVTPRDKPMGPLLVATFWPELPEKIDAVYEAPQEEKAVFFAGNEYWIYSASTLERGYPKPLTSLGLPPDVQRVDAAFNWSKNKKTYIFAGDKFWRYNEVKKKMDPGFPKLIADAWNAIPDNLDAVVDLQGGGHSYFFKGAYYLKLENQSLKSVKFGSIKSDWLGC

Interstitial collagenase = Interstitial collagenase (Homo sapiens, UniProt P03956); assay: Inhibition of MMP1
Interstitial collagenase, sequence (P03956 whole entry, looked up): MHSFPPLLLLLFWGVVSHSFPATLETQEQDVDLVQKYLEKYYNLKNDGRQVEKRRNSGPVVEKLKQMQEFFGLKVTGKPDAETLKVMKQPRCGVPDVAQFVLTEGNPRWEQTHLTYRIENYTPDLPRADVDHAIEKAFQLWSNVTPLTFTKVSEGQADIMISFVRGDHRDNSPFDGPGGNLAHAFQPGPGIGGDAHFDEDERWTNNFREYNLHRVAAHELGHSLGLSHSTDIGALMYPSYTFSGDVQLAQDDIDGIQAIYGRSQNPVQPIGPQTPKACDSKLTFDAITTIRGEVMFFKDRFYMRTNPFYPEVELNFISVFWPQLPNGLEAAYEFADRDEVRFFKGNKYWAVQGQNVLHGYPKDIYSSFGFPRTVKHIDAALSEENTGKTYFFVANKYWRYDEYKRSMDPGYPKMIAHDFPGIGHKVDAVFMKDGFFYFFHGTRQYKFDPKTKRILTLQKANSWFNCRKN

[7] = target: Matrix metalloproteinase-14 (Homo sapiens, UniProt P50281); assay: Inhibition of MMP14
[8] = target: T1, A disintegrin and metalloproteinase with thrombospondin motifs 4 (Homo sapiens, UniProt O75173); assay: Inhibition of aggrecanase-1
T1 sequence (O75173 whole entry): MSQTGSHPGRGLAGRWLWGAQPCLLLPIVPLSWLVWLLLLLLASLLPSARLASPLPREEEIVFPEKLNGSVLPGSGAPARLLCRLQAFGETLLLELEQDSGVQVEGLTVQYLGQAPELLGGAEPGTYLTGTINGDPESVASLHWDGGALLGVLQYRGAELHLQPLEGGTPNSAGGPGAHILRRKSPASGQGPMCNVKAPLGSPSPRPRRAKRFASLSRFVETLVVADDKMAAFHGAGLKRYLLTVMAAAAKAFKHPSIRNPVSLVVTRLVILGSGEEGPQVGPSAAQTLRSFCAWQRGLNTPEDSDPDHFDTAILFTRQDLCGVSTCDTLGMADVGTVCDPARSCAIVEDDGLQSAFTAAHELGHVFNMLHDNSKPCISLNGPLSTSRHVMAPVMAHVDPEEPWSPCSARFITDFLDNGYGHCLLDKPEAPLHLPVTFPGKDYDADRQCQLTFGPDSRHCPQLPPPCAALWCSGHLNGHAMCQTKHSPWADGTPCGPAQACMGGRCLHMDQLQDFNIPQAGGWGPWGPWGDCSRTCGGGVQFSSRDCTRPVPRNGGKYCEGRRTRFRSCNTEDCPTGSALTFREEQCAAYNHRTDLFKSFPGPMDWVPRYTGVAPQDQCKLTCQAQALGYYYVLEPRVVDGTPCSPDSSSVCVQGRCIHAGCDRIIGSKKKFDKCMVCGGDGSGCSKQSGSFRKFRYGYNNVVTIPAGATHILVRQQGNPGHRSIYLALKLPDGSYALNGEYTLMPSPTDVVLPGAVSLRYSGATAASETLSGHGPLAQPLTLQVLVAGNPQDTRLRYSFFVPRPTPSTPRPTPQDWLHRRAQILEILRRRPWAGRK

albumin = albumin (Oryctolagus cuniculus, UniProt P49065); assay: Protein binding in rabbit serum albumin by equilibrium dialysis assay; format: ADME; conditions: read-out: PB
albumin, sequence (P49065 whole entry): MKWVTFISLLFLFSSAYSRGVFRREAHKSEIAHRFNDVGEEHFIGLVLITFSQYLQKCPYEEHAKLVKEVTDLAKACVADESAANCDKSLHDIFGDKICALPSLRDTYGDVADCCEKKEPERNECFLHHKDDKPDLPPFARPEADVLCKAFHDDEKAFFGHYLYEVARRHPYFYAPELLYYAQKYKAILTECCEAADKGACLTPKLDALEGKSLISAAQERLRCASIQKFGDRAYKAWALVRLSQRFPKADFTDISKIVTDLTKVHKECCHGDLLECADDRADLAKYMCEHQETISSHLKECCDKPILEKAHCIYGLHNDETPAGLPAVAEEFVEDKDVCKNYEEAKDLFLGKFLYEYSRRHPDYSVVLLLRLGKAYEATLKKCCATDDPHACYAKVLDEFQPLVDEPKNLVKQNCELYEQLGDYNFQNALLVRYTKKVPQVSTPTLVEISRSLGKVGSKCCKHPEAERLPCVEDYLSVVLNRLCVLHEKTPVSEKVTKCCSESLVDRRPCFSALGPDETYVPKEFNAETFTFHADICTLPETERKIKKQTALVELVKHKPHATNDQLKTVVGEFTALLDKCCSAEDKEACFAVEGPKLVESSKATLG

Matrix metalloproteinase-9, sequence (P14780 whole entry): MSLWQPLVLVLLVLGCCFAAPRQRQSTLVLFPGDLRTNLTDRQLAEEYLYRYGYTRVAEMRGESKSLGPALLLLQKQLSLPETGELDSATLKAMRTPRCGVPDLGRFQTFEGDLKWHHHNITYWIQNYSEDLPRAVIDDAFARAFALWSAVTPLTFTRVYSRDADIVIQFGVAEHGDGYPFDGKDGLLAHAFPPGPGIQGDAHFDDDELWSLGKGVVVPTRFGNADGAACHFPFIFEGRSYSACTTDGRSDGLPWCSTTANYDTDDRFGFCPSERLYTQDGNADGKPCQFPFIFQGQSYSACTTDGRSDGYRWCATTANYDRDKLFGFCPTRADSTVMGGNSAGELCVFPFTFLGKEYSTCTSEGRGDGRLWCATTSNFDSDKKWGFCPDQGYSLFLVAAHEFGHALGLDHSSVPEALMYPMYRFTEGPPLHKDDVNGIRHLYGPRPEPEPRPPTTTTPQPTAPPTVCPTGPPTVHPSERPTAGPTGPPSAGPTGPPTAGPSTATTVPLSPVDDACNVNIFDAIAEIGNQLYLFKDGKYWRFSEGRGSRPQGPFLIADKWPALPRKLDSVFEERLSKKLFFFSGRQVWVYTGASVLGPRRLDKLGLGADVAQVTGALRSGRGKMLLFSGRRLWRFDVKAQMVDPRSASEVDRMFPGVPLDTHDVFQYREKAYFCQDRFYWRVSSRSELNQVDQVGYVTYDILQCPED

Structure (SMILES)	Ratio IC50 [1]	also measured
Cc1c(C(=O)Nc2ccc(-c3ccc(S(=O)(=O)N[C@H](C(=O)O)C(C)C)cc3)cc2)oc2cccc(N)c12	75	
CC#Cc1cccc2oc(C(=O)Nc3ccc(-c4ccc(S(=O)(=O)N[C@H](C(=O)O)C(C)C)cc4)cc3)c(C)c12	1580	
Cc1c(C(=O)Nc2ccc(-c3ccc(S(=O)(=O)N[C@H](C(=O)O)C(C)C)cc3)cc2)oc2cccc(NS(C)(=O)=O)c12	165	IC50 (Collagenase 3): 13 nM; IC50 [6]: 2.15 µM; IC50 [2]: > 10 µM; IC50 (Interstitial collagenase): 12 µM; IC50 [7]: 11.2 µM; IC50 [8]: 2200 nM; inhibition [3]: 96%; inhibition [4]: 69%; inhibition [5]: 51%
Cc1c(C(=O)Nc2ccc(-c3ccc(S(=O)(=O)N[C@H](C(=O)O)C(C)C)cc3)cc2)oc2cccc(N3CCOCC3)c12	51	
COCCCc1cccc2oc(C(=O)Nc3ccc(-c4ccc(S(=O)(=O)N[C@H](C(=O)O)C(C)C)cc4)cc3)c(C)c12	364	
Cc1c(C(=O)Nc2ccc(-c3ccc(S(=O)(=O)N[C@H](C(=O)O)C(C)C)cc3)nc2)oc2cccc(NS(C)(=O)=O)c12	188	IC50 (Collagenase 3): 40 nM; IC50 [6]: 7.5 µM
COc1cccc2oc(C(=O)Nc3ccc(-c4ccc(S(=O)(=O)N[C@H](C(=O)O)C(C)C)cc4)cc3)c(C)c12	110	
CCOc1cccc2oc(C(=O)Nc3ccc(-c4ccc(S(=O)(=O)N[C@H](C(=O)O)C(C)C)cc4)cc3)c(C)c12	485	
Cc1c(C(=O)Nc2ccc(-c3ccc(S(=O)(=O)N[C@H](C(=O)O)C(C)C)cc3)cc2)oc2cccc(N(C)C)c12	786	
C#Cc1cccc2oc(C(=O)Nc3ccc(-c4ccc(S(=O)(=O)N[C@H](C(=O)O)C(C)C)cc4)cc3)c(C)c12	98	

The next lines start with results.

Ratio IC50 [1]	Structure (SMILES)	also measured
157	Cc1c(C(=O)Nc2ccc(-c3ccc(S(=O)(=O)N[C@H](C(=O)O)C(C)C)cc3)cc2)oc2cccc(C#N)c12	IC50 [2]: > 10 µM; inhibition [3]: 100%; inhibition [4]: 87%; inhibition [5]: 23%
248	COC(=O)C(C)(C)Oc1cccc2oc(C(=O)Nc3ccc(-c4ccc(S(=O)(=O)N[C@H](C(=O)O)C(C)C)cc4)cc3)c(C)c12	
739	COc1c(Br)ccc2oc(C(=O)Nc3ccc(-c4ccc(S(=O)(=O)N[C@H](C(=O)O)C(C)C)cc4)cc3)c(C)c12	fraction unbound (albumin): < 0.01
263	Cc1c(C(=O)Nc2ccc(-c3ccc(S(=O)(=O)N[C@H](C(=O)O)C(C)C)cc3)cc2)oc2cccc(Oc3ccccc3)c12	
63	Cc1c(C(=O)Nc2ccc(-c3ccc(S(=O)(=O)N[C@H](C(=O)O)C(C)C)cc3)cc2)oc2cccc(O)c12	
108	CNc1cccc2oc(C(=O)Nc3ccc(-c4ccc(S(=O)(=O)N[C@H](C(=O)O)C(C)C)cc4)cc3)c(C)c12	
152	CC(=O)Nc1cccc2oc(C(=O)Nc3ccc(-c4ccc(S(=O)(=O)N[C@H](C(=O)O)C(C)C)cc4)cc3)c(C)c12	
322	Cc1c(C(=O)Nc2ccc(-c3ccc(S(=O)(=O)N[C@H](C(=O)O)C(C)C)cc3)cc2)oc2cccc(-c3ccoc3)c12	
287	Cc1cccc2oc(C(=O)Nc3ccc(-c4ccc(S(=O)(=O)N[C@H](C(=O)O)C(C)C)cc4)cc3)c(C)c12	
613	CCc1cccc2oc(C(=O)Nc3ccc(-c4ccc(S(=O)(=O)N[C@H](C(=O)O)C(C)C)cc4)cc3)c(C)c12	
621	Cc1c(C(=O)Nc2ccc(-c3ccc(S(=O)(=O)N[C@H](C(=O)O)C(C)C)cc3)cc2)oc2cccc(CCCO)c12	
243	Cc1c(C(=O)Nc2ccc(-c3ccc(S(=O)(=O)N[C@H](C(=O)O)C(C)C)cc3)cc2)oc2cccc(-c3ccccc3)c12	
